From PMC11314561, “Design and Synthesis of Novel Aminoindazole-pyrrolo[2,3-b]pyridine Inhibitors of IKKα That Selectively Perturb Cellular Non-Canonical NF-κB Signalling” (Molecules, 2024)

Key:
Format in all cases: biochemical
IKKα = target: T1, IKKα (Homo sapiens, UniProt O15111); experiment: DELFIA kinase assay, IKKα; conditions: for Ki: DELFIA kinase assay; for Selectivity for IKKα over IKKβ: ratio of Ki IKKβ to Ki IKKα
T1 sequence (O15111 1-745): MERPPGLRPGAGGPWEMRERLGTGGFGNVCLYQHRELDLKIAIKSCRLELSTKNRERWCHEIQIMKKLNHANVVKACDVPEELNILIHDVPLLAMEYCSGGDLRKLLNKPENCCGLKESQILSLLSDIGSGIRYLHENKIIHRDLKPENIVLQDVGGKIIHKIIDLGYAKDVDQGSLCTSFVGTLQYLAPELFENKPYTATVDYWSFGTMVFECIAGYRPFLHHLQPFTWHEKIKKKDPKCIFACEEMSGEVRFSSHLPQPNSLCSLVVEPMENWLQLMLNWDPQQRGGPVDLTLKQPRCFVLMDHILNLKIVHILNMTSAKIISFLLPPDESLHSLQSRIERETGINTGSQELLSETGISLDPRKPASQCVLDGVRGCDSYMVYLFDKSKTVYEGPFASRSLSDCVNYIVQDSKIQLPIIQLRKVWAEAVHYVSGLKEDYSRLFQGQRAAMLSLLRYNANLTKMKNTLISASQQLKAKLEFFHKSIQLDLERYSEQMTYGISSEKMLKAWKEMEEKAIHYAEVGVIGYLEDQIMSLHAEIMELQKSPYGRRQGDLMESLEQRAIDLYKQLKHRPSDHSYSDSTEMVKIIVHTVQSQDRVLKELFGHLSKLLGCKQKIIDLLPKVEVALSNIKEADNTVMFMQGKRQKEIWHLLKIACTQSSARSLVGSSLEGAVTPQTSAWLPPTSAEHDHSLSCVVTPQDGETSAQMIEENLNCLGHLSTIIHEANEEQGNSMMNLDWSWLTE
Description: To examine the pyrrolo[2,3-b]pyridines as an alternative scaffold, we adopted the AIPP core because it had similar dimensions to SU909 (1), with HBD/HBA motifs positioned at the scaffold extremities to interact with both the hinge region and the G-loop wall of IKKα, a rationale we had previously proposed as the basis for imparting selectivity. A preliminary set of AIPP derivatives was designed and synthesised to explore its utility as an IKK-targeting scaffold, whilst incorporating additional functionality through which to introduce selectivity for the IKKα isoform (2–4; Figure 3). This was achieved by initially adopting two different approaches: either appending a hydrophobic moiety to the pyrrolo[2,3-b]pyridine motif as a fused form to afford the tricyclic derivatives 2 and 3, or as a phenyl substituent to introduce flexibility with respect to the central pyrrolo[2,3-b]pyridine moiety in 4. When assessed against IKKα and IKKβ using our in-house DELFIA kinase assay […] The pyrrolo[2,3-b]pyridine was bound to the hinge region in the classical HBA/HBD motif with the GK+3 amide backbone, whilst the aminoindazole projected towards the top of the pocket to interact with the G-loop (Figure 4A). […] In both isoforms, the 2-phenyl moiety protruded away from the hinge towards the exposed solvent area.
IKKα and IKKβ inhibitory activity were determined using a dissociation-enhanced ligand fluorescent immunoassay (DELFIA) based on the protocol of HTScan™ IKKβ Kinase Assay (Cell Signaling Technology, Danvers, MA, USA) as described in [24].

AMPKα1(h) = AMPKα1(h) (Homo sapiens, UniProt Q13131); experiment: kinase panel
Chain of AMPKα1(h) (Q13131 whole entry): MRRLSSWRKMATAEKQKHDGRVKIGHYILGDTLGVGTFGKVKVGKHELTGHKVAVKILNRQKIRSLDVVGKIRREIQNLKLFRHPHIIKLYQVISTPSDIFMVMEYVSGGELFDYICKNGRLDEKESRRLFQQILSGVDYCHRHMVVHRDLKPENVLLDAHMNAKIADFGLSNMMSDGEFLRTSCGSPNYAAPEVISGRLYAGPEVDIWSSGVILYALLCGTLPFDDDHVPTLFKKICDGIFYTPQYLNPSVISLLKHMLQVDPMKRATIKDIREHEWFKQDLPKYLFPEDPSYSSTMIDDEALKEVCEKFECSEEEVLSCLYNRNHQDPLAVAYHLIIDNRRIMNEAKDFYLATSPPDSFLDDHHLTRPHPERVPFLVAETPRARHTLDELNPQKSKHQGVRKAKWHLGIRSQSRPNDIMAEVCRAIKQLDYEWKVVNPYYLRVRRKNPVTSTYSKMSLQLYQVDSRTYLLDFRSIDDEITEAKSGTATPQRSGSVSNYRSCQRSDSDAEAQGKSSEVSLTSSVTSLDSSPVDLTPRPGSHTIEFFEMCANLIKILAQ
Chain of AMPKα1(h) (Q9Y478 whole entry partner): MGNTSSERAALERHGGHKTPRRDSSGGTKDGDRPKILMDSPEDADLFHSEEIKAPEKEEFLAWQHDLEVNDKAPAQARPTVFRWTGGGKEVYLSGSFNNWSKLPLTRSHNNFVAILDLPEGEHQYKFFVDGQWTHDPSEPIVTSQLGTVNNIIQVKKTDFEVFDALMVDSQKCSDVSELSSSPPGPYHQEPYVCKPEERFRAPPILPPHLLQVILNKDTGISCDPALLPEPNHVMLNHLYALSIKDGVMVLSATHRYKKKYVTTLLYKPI
Chain of AMPKα1(h) (P54619 whole entry partner): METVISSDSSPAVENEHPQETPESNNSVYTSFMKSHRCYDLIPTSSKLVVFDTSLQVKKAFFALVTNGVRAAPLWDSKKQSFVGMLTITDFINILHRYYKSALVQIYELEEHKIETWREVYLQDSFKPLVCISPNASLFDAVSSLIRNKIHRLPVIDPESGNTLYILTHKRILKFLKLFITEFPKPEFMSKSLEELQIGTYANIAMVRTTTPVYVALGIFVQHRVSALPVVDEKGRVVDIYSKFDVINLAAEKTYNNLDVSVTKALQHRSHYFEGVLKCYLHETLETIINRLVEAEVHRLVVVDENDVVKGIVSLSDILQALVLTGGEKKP
Description: (§1) We profiled three compounds from the series across the kinome (Table S1).
(§2) Ta b l e S1. The % inhibition of compounds 4, 5r [SU1261], and 6g [SU1349] against a
(§3) panel of kinase enzymes. We proϐiled three compounds from the series across 231
(§4) kinases. For SU1349, given its structural similarity with SU1261, we selected 98 from the
(§5) Tested kinase % inhibiƟon

Arg(h) = Arg(h) (Homo sapiens, UniProt P42684); experiment: kinase panel
Chain of Arg(h) (P42684 whole entry): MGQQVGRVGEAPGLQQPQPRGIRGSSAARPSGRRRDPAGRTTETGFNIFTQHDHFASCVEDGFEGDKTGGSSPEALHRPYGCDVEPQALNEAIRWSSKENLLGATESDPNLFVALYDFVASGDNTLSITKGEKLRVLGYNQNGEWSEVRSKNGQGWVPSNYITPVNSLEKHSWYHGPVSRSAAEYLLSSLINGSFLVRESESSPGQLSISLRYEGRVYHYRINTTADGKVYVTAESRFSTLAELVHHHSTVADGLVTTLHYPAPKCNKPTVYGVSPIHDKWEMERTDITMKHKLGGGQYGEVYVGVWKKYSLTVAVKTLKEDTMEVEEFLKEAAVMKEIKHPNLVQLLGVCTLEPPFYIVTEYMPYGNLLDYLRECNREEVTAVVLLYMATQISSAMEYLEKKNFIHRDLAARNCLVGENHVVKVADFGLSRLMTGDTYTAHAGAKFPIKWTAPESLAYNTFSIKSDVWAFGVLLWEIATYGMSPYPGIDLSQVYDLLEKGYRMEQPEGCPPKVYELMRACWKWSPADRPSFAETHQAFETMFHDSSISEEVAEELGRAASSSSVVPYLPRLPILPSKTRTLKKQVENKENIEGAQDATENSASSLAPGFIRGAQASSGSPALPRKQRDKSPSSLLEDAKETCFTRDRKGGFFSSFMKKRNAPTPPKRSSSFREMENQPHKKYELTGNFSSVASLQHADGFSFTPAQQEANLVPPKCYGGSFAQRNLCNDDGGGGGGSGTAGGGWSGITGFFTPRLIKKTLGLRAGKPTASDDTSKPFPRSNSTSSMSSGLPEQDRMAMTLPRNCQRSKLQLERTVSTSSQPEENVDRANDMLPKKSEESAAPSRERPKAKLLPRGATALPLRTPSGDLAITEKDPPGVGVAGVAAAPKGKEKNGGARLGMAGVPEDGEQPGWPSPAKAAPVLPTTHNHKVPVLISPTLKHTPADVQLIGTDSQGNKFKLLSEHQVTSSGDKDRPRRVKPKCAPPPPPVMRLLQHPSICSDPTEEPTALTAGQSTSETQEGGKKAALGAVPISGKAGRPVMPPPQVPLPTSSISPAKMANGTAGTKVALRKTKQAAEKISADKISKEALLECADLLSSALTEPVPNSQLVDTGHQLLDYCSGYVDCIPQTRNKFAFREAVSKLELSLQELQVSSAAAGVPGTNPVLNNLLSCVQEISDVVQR
Description: as §1, §2, §3, §4, §5

CDK9/cyclin T1(h) = CDK9/cyclin T1(h) (Homo sapiens, UniProt P50750); experiment: kinase panel
Description: as §1, §2, §3, §4, §5

CLK2(h) = CLK2(h) (Homo sapiens, UniProt P49760); experiment: kinase panel
Chain of CLK2(h) (P49760 whole entry): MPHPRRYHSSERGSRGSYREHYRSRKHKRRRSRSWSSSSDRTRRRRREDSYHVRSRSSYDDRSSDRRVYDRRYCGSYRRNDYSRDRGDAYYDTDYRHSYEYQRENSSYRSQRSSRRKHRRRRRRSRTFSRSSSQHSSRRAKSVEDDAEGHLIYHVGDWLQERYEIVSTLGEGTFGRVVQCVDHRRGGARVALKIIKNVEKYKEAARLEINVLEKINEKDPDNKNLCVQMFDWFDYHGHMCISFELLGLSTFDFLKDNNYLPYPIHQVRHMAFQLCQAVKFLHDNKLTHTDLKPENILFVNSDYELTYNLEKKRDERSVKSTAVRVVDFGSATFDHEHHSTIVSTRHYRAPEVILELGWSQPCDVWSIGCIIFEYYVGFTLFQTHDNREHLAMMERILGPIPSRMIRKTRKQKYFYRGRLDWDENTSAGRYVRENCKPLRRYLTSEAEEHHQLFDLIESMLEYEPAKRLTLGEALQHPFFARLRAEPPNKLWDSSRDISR
Description: as §1, §2, §3, §4, §5

EGFR(h) = EGFR(h) (Homo sapiens, UniProt P00533); experiment: kinase panel
Chain of EGFR(h) (P00533 25-1210): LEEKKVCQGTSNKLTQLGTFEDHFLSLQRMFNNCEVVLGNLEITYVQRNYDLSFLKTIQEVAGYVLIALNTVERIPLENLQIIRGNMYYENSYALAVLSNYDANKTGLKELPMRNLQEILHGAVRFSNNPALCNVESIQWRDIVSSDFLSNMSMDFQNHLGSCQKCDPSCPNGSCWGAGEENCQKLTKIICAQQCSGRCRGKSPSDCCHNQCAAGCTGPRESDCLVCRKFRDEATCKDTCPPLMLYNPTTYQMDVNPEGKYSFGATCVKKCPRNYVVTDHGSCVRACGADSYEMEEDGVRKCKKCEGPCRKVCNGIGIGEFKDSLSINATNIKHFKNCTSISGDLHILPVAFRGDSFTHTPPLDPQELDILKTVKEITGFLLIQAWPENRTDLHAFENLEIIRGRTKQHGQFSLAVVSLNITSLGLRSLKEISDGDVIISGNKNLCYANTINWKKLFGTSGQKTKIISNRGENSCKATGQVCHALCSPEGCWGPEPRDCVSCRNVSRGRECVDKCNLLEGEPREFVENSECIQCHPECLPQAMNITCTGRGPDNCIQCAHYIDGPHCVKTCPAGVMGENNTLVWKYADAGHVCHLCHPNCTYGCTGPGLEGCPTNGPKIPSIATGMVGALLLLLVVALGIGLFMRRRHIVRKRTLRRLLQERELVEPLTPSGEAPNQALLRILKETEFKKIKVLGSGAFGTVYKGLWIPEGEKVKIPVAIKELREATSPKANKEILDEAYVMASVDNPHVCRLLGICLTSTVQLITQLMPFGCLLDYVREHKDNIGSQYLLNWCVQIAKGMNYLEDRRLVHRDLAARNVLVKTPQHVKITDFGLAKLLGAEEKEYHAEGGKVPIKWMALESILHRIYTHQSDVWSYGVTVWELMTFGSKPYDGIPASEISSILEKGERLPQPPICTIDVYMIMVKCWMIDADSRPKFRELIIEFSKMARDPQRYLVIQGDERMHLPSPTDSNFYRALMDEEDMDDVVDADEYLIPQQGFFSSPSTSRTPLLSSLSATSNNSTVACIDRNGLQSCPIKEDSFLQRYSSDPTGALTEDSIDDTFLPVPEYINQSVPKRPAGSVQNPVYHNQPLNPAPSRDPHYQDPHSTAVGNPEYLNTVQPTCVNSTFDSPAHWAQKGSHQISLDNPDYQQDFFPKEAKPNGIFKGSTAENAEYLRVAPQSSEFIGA
Description: as §1, §2, §3, §4, §5

PDK1(h) = target: T2, PDK1(h) (Homo sapiens, UniProt O15530); experiment: kinase panel
T2 sequence (O15530 1-556): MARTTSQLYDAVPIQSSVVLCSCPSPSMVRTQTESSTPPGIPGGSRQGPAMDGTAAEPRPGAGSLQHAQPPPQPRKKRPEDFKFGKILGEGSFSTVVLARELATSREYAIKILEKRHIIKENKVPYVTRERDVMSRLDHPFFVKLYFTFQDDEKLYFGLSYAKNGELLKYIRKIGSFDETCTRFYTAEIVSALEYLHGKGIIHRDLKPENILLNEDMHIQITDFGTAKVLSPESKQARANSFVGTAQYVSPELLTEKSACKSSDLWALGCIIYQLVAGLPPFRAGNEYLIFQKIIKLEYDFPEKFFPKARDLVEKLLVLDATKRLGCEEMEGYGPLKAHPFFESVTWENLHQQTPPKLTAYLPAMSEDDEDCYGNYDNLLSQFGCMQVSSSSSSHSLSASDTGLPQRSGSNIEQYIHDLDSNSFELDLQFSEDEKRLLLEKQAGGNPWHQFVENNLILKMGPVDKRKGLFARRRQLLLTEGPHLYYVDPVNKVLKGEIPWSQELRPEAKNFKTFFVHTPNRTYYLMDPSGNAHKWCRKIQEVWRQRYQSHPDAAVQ
Description: as §1, §2, §3, §4, §5

Row | Ki (IKKα) | Selectivity for IKKα over IKKβ (IKKα; listed as 6g [SU1349]) | Selectivity for IKKα over IKKβ (IKKα; listed as SU1349) | inhibition at 1 µM (AMPKα1(h)) | inhibition at 1 µM (Arg(h)) | inhibition at 1 µM (CDK9/cyclin T1(h)) | inhibition at 1 µM (CLK2(h)) | inhibition at 1 µM (EGFR(h)) | inhibition at 1 µM (PDK1(h)) | SMILES
1 | 0.016 µM | 209 fold | 209.5 fold | -5% | 24% | 99% | 68% | -8% | 18% | Nc1n[nH]c2ccc(-c3ccnc4[nH]c(-c5ccnc(OCc6ccccc6)c5)cc34)cc12 [Compound 6g [SU1349]]
2 | 0.003 µM |  |  | 23% | 96% | 98% | 97% | 13% | 25% | Nc1n[nH]c2ccc(-c3ccnc4[nH]c(-c5ccccc5)cc34)cc12 [Compound 4]
3 | 0.01 µM |  |  | -7% | 76% | 98% | 80% | 5% | 7% | Nc1n[nH]c2ccc(-c3ccnc4[nH]c(-c5cccc(OCc6ccccc6)c5)cc34)cc12 [Compound 5r [SU1261]]
